Data from PMC11338861, “Assessment of the potential risk of oteseconazole and two other tetrazole antifungals to inhibit adrenal steroidogenesis and peripheral metabolism of corticosteroids” (Frontiers in Pharmacology, 2024).

Legend:
CYP11B1 = molecular target: T1, CYP11B1 (Homo sapiens, UniProt P15538); assay: mitochondrial fraction of V79-CYP11B1 cells, 11-DOC to corticosterone, UHPLC-MS/MS; type: cell-based
T1 sequence (P15538 25-503): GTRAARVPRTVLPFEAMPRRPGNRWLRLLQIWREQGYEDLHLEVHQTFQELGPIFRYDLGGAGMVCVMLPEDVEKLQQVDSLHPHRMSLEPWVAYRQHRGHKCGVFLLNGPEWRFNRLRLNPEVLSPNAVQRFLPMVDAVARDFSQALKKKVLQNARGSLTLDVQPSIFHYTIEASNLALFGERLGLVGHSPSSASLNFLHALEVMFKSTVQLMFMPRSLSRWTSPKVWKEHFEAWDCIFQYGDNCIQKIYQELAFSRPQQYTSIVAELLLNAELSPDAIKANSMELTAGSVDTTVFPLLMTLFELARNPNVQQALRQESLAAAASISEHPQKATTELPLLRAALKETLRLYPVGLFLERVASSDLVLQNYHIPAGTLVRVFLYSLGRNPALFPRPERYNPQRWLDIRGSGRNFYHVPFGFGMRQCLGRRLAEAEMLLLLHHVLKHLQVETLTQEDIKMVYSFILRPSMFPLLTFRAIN

CYP11A1 = molecular target: T2, CYP11A1 (Homo sapiens, UniProt P05108); assay: mitochondrial fraction of transfected V79-4 cells, pregnenolone ELISA; type: cell-based
T2 sequence (P05108 40-521): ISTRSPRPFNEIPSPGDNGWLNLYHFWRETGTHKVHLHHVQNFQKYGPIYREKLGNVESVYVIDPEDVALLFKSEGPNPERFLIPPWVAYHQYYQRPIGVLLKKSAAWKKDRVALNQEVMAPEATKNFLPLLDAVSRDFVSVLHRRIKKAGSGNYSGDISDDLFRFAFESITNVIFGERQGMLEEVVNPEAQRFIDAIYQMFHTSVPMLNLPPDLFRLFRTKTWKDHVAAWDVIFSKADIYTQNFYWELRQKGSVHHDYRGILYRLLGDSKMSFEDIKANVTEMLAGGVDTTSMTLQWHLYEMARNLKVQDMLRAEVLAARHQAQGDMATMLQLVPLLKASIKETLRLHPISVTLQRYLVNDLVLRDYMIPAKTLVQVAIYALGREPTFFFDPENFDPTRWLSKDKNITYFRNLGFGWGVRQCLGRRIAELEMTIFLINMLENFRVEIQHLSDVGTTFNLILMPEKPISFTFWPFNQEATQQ
T2 sequence (P10109 61-184 partner): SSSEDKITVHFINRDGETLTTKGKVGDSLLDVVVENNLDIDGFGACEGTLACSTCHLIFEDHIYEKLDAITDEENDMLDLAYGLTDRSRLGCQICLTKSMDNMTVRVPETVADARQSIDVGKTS

CYP17A1 = molecular target: T3, CYP17A1 (Homo sapiens, UniProt P05093); assay: […]α-hydroxylase activity, microsomes of transfected COS-1 cells, radiolabeled progesterone, TLC ([…],20-lyase IC50 […]); type: biochemical
T3 sequence (P05093 1-508): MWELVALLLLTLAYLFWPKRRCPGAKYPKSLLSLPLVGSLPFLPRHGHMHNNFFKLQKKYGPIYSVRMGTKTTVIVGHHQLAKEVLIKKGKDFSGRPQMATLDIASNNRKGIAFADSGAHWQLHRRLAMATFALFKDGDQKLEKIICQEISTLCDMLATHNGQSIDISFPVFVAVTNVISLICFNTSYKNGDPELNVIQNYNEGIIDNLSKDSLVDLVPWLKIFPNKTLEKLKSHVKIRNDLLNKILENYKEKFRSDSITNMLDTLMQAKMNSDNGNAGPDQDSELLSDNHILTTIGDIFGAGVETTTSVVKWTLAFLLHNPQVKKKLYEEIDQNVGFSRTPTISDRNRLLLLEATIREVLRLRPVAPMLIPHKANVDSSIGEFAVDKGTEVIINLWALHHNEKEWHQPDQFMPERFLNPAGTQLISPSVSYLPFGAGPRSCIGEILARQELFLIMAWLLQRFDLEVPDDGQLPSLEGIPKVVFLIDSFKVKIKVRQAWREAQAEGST
T3 sequence (P16435 2-677 partner): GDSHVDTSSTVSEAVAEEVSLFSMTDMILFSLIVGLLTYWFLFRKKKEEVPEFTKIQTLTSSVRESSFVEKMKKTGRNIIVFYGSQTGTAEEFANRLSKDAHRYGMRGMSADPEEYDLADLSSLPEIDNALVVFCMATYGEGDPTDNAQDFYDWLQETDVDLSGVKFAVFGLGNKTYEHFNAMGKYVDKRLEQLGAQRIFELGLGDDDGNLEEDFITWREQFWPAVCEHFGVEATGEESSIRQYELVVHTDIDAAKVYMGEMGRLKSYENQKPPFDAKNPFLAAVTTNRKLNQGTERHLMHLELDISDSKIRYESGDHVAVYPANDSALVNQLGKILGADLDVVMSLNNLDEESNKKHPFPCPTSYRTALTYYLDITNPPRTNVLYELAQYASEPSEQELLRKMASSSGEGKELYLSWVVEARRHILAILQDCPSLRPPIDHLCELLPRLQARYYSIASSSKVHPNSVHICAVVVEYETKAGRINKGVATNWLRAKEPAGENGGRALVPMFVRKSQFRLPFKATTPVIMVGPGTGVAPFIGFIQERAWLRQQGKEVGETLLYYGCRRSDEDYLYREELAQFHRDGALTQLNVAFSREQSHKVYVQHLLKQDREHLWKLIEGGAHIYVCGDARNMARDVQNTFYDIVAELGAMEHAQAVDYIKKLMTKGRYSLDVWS

CYP21A2 = molecular target: T4, CYP21A2 (Homo sapiens, UniProt P08686); assay: cell-free activity assay, microsomes of transfected COS-1 cells, progesterone to 11-DOC; type: biochemical
T4 sequence (P08686 1-495): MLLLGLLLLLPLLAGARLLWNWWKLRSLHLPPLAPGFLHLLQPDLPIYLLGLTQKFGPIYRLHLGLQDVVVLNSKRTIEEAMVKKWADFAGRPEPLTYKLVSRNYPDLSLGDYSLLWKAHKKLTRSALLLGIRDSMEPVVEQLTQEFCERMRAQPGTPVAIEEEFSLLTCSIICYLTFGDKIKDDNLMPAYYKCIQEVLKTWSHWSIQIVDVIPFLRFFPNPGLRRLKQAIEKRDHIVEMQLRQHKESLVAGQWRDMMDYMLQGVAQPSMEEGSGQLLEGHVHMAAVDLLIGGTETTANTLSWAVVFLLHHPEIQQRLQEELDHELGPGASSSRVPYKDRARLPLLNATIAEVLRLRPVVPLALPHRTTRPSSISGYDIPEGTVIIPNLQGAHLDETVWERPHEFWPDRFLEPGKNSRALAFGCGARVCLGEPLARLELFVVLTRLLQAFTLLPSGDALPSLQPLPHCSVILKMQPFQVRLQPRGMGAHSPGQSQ
T4 sequence (P16435 2-677 partner): T3 sequence (P16435 2-677 partner)

SMILES: CC(=O)N1CCN(c2ccc(OC[C@H]3CO[C@](Cn4ccnc4)(c4ccc(Cl)cc4Cl)O3)cc2)CC1 (racemic) [ketoconazole, reference compound]
- mitochondrial fraction of V79-CYP11B1 cells, 11-DOC to corticosterone, UHPLC-MS/ (CYP11B1): measuring the conversion of 11-DOC to corticosterone, with ketoconazole serving as positive control
- inhibition at 10 µM (CYP11A1): ~55%

SMILES: O[C@@](Cn1cnnn1)(c1ccc(F)cc1F)C(F)(F)c1ccc(-c2ccc(OCC(F)(F)F)cc2)cn1 [oteseconazole]
- IC50 (CYP17A1): 13.2 ± 3.9 µM
- IC50 (CYP21A2): 13.8 ± 1.9 µM
- inhibition at 10 µM (CYP11A1): ~35%

SMILES: O[C@@](Cn1cnnn1)(c1ccc(F)cc1F)C(F)(F)c1ccc(-c2ccc(OC(F)(F)F)cc2)cn1 [quilseconazole]
- inhibition at 10 µM (CYP11A1): ~45%
